Measured values as given in patent US10287292B2, “CXCR7 antagonists” (CHEMOCENTRYX, INC., priority 2012, dated 2019).

Tests used:
[1] = biological target: T1, CXCR7 receptor (Homo sapiens (Human), UniProt P25106); experiment: Buffer Binding Analysis: displacement of 125I-labeled SDF-1 from CXCR7; conditions: 125I SDF-1 displacement, buffer binding medium, MCF-7 and/or MDA-MB-435S CXCR7 transfected cells, 3 hr at 4° C.; read-out: Avg Bind IC50
Method: The compounds were combined with cells expressing the CXCR7 receptor (e.g., MCF cells or cells transfected to express CXCR7) in the presence of the 125 I-labeled SDF-1 chemokine as detailed in Determination of IC50 values. Reagents and Cells (see below). The ability of the compounds to displace the labeled chemokine from the CXCR7 receptor sites at multiple concentrations was then determined with the screening process.
Compounds that were deemed effective modulators were able to displace at least 50% of the SDF-1 from the CXCR7 receptor at concentrations at or below 15 micromolar (μM) but >2500 nM (+); and more preferably at concentrations from >500 nM to ≤2500 nM (++). At present, especially preferred compounds can displace at least 50% of the SDF-1 from the CXCR7 receptor at concentrations at or below 500 nM (+++). Exemplary compounds that met these criteria are reproduced in Table 1 and the Examples above. In Table 1, Avg Bind IC50 refers to the Buffer Binding Analysis described below, while Avg Ser IC50 refers to the Serum Binding Analysis described below. All compounds were prepared as described in the Examples above, or by related methods substituting readily available starting materials.
^125I-labeled SDF-1 was purchased from Perkin-Elmer Life Sciences, Inc. (Boston, Mass.). The MCF-7 (adenocarcinoma; mammary gland) cell line was obtained from the American Type Culture Collection (ATCC, Manassas, Va.) or and was cultured in DMEM (Mediatech, Herndon, Va.) supplemented with 10% fetal bovine serum (FBS) (HyClone Logan, Utah) and bovine insulin (0.01 mg/mL) (Sigma. St. Louis, Mo.) at 37° C. in a humidified incubator at a 5% CO2/air mixture. CXCR7 transfected MDA-MB-435S were produced as described below. MDA-MB-435S human breast cancer line, was purchased from ATCC, and cultured in DMEM/10% FBS medium. The complete coding sequence of the gene encoding CXCR7 (a.k.a. CCXCKR2, hRDC1), was isolated from MCF-7 cells using μMACs mRNA isolation kit (Miltenyi Biotec, Auburn, Calif.). DNA contamination was removed by DNase digestion via RNeasy columns (Qiagen, Inc., Valencia, Calif.) and cDNA was generated using GeneAmp RNA PCR Core Kit (Applied Biosystems, Foster City. Calif.). PCR of cDNA samples was performed using Taq PCR Master Mix kit (Qiagen. Inc.) and hRDC1 primers harboring 5′ and 3′ Not I sites (hRDC1F 5′ […]-3, hRDC1R 5′-[…]-3′) Not I digested PCR product was ligated into Not I digested pcDNA3.1(+)(Invitrogen, Carlsbad, Calif.) and screened for orientation and sequence confirmed. Plasmid DNA was then isolated from overnight bacterial cultures by Maxiprep (Qiagen, Inc.). Plasmid DNA (10 μg) was added to MDA-MB-435s cells and cells were electroporated (0.22 kV, 960 uF) via Gene Pulser (Biorad laboratories, Hercules, Calif.). 48 hr post-electroporation, cells were transferred to selection medium (600 ug/ml G418).
Target compounds can be tested to determine their ability to bind with CXCR7 sites on MCF-7 and/or MDA-MB-435S CXCR7 transfected cells. Efficiency-maxim/zed radioligand binding using filtration protocols as described in Dairaghi D J, et al., HHV8-encoded vMIP-I selectively engages chemokine receptor CCR5. Agonist and antagonist profiles of viral chemokines., J. Biol. Chem. 1999 Jul. 30; 274(31): 21569-74 and Gosling J. et al., Cutting edge: identification of a novel chemokine receptor that binds dendritic cell-and T cell-active chemokines including ELC. SLC, and TECK., J. Immunol. 2000 Mar. 15; 164(6):2851-6 was used.
In these assays, MCF-7 and/or MDA-MB-435S cells are interrogated with the target compounds and the ability of these compounds to displace ^125I radiolabeled SDF-1 assessed using the protocol described in Dairaghi and Gosling. […]

[2] = biological target: T1, CXCR7 receptor; experiment: Serum Binding Analysis: displacement of 125I-labeled SDF-1 from CXCR7 in 100% human serum; conditions: 125I SDF-1 displacement in 100% human serum, MCF-7 and/or MDA-MB-435S CXCR7 transfected cells, 3 hrs at 4° C.; read-out: Avg Ser IC50
Summary of the method: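 MCF-7 or CXCR7-transfected MDA-MB-435S cells incubated with compounds and 125I-SDF-1 in human AB serum plus 10 mM HEPES, pH 7.4, for 3 h at 4° C with gentle agitation. Bound radioligand separated by filtration; IC50 from displacement across multiple concentrations.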

[3] = system: C6 cells; experiment: Rat C6 model of glioblastoma; format: in vivo; conditions: C6 cells implanted into brains of Sprague-Dawley rats, tumors irradiated with 5-20 Gy after 7 days, then compound vs vehicle control
Method: Many tumor models in animals are known in the art, and may be employed to evaluate a compound of instance. For instance, in a rat C6 model of glioblastoma, 1×10^6 C6 cells were implanted by stereotactic injection into the into the brains of Sprague-Dawley rats. After 7 days tumors were irradiated with between 5-20 Gy of radiation. Following irradiation rats were treated (eg via subcutaneous, intraperitoneal, oral, parenteral or other route) with compound or vehicle control and tumors are allowed to progress. Animals were followed until death or loss of >20% weight, or removed for tumor induced neurodeficits eg seizures and immobility in according with appropriate regulations and standards.

T1 sequence (P25106 whole entry): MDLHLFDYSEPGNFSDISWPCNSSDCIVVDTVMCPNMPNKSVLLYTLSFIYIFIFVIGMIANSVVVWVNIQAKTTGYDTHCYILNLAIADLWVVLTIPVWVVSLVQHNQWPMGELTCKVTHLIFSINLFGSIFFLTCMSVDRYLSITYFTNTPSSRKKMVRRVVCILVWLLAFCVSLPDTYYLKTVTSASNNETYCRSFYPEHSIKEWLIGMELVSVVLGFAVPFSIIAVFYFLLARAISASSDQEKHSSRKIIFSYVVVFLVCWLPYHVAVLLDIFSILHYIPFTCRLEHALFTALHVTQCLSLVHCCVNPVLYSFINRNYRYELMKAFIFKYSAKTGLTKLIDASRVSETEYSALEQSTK

For `O=C(N[C@H]1CCN(c2nccn3ccnc23)C1)c1ncn(-c2ccc(F)cc2)n1` [Compound 1.090], the IC50 [1] was ≤ 500 nM, the IC50 [2] was ≤ 500 nM and the “antitumor activity (delay in tumor growth, Kaplan Meier analysis of survival)” value [3] was “profound antitumor activity”.
